Assay results reported in PubChem BioAssay (NCI).
Where “and” joins values, the source holds several entries; their conditions need not be identical. Equal entries are not always repeated.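 Dose response: 5 concentrations. Exposure: 48 h. Format: 96-well plates. Endpoint: linear interpolation; highest concentration if not reached. GI50: concentration for 50% inhibition of growth. The concentration for full growth arrest is given as TGI.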

Experiments:
Assay in all cases: growth of human tumour cells (NCI), 48 h
[1] = tested on: MDA-MB-435
[2] = tested on: TK-10 renal
[3] = tested on: SK-MEL-2 melanoma
[4] = tested on: A549 NSCLC
[5] = tested on: SN12C renal
[6] = tested on: SK-MEL-28 melanoma
[7] = tested on: SR leukemia
[8] = tested on: SF-268 CNS
[9] = tested on: SNB-75 CNS
[10] = tested on: A498 renal

Row | Compound | GI50 [1] | TGI [1] | GI50 [2] | TGI [2] | GI50 [3] | TGI [3] | GI50 [4] | TGI [4] | GI50 [5] | TGI [5] | GI50 [6] | TGI [6] | GI50 [7] | TGI [7] | GI50 [8] | TGI [8] | GI50 [9] | TGI [9] | GI50 [10] | TGI [10]
1 | COc1ccc(/C=N\Nc2nc(SCC(C)C)nc(-c3ccc(OC)cc3)c2C#N)cc1 | 17.9 µM | > 100 µM | 2.02 µM | 8.62 µM | 17.2 µM | 39.7 µM | 0.524 µM | 16.2 µM | 2.1 µM | 20.4 µM | 30.8 µM | > 100 µM | 8.69 µM | 96 µM | 11.7 µM | 67.7 µM | 1.67 µM | 8.06 µM | 2.49 µM | 7.14 µM
2 | Cc1ccc(S(=O)(=O)NC(=O)OC23COCN2COC3)cc1 |  | > 100 µM |  | > 100 µM |  | > 100 µM |  | > 100 µM |  | > 100 µM |  | > 100 µM |  | > 100 µM |  | > 100 µM |  | > 100 µM |  | > 100 µM
3 | CN(C)c1nc(N)c(C#N)c(C#N)c1C#N |  | > 10 µM |  | > 10 µM |  | > 10 µM |  | > 10 µM |  | > 10 µM |  | > 10 µM |  | > 10 µM |  | > 10 µM |  | > 10 µM |  | > 10 µM
4 | C=CCN(CC=C)C(=O)[C@H](CC)[C@@H]1CC[C@@H](C)[C@@H]([C@H](C)[C@@H](O)[C@@H](C)C(=O)[C@H](CC)C2O[C@]3(C=C[C@@H](O)[C@]4(CC[C@@](C)([C@H]5CC[C@](O)(CC)[C@H](C)O5)O4)O3)[C@H](C)C[C@@H]2C)O1 (stereo not given in full) | 2.71 µM | 8.5 µM | 3.65 µM | > 100 µM | 2.62 µM | 7.47 µM | 3.37 µM | > 100 µM | 2.2 µM | 6.42 µM | 4.45 µM | 21.6 µM | 2.41 µM | 7.1 µM | 3.27 µM | 34.8 µM | 1.84 µM | 10.5 µM | 2.07 µM | 5.32 µM
5 | CC1(C)[C@H](O)[C@H](F)C[C@@]2(C)Oc3ccc(C(=O)Nc4ccc5c(c4)NC(=O)C54CCN(CCCCC#N)CC4)cc3C[C@H]12 | 0.09 µM and 0.0946 µM | 1.83 µM and 2.94 µM | 3.44 µM | 14.7 µM | 1.14 µM | 2.44 µM |  | 8.4 µM | 11.7 µM | 42.4 µM | 1.25 µM and 1.2 µM | 3.61 µM and 3.43 µM | 0.0106 µM | 2.6 µM | 0.413 µM and 0.4 µM | 10.1 µM | 0.00679 µM | 6.38 µM and 2.2 µM | 0.0341 µM | 0.548 µM
6 | COc1ccc(S(=O)(=O)N2CCNCC2)cc1OC | > 100 µM | > 100 µM | > 100 µM | > 100 µM | > 100 µM | > 100 µM | > 100 µM | > 100 µM | > 100 µM | > 100 µM | > 100 µM | > 100 µM | > 100 µM | > 100 µM | > 100 µM | > 100 µM | > 100 µM | > 100 µM | > 100 µM | > 100 µM
7 | CC1=NNC(=S)NCCCN2CCN(CCCNC(=S)NN=C(C)C=NNC(=S)NCCCN3CCN(CCCNC(=S)NN=C1)CC3)CC2 |  | > 100 µM |  | > 100 µM |  | > 100 µM |  | > 100 µM |  | > 100 µM |  | > 100 µM |  | > 100 µM |  | > 100 µM |  | > 100 µM |  | > 100 µM
8 | CC(C)N(Cc1ccc(F)cc1)c1ccc(CO)c(Cl)c1 | 15 µM | 29.5 µM | 0.0283 µM | 0.173 µM | 1.61 µM | 16.6 µM | 1.03 µM | 17.5 µM | 10.8 µM | 23.2 µM | 14 µM | 27.2 µM | 12.8 µM | 32.5 µM | 13.1 µM | 26.4 µM | 9.21 µM | 23.3 µM | 0.0225 µM | 0.134 µM
9 | COc1c(OC(C)C)cc2cc(O)c(C(=O)NC3Cc4ccc(c(Cl)n4)O[C@@H]4C=C5C#C/C(=C\C#CC6OC56C4OC4CC(C)(O)C(O)C(C)O4)C(OC4CC(O)C(N(C)C)C(C)O4)COC3=O)cc2c1OC (stereo not given in full) |  | > 36.3 µM | > 36.3 µM and 37.5 µg/mL | > 36.3 µM and 37.5 µg/mL | 10 µg/mL | > 36.3 µM and 31.8 µg/mL | > 36.3 µM and 0.798 µg/mL | > 36.3 µM and 37.5 µg/mL | 17.7 µM and 0.718 µg/mL | > 36.3 µM and 9.82 µg/mL | 3.16 µg/mL | > 36.3 µM and 37.5 µg/mL | 8.27 µM and 0.0174 µg/mL | > 36.3 µM and 0.746 µg/mL | 11.5 µM and 0.838 µg/mL | > 36.3 µM and 17.3 µg/mL | 4.43 µg/mL | > 36.3 µM and 19.1 µg/mL | 0.168 µg/mL | > 36.3 µM and 8.7 µg/mL
10 | O=S(=O)(O)c1ccc2cc3nn(-c4ccc(/C=C/c5ccc(-n6nc7cc8ccc(S(=O)(=O)O)cc8cc7n6)cc5S(=O)(=O)O)c(S(=O)(=O)O)c4)nc3cc2c1 | > 100 µM | > 100 µM | 10.6 µM | > 100 µM | > 100 µM | > 100 µM | 41.7 µM | > 100 µM | 67.8 µM | > 100 µM | > 100 µM | > 100 µM | 34.4 µM | > 100 µM | > 100 µM | > 100 µM | > 100 µM | > 100 µM | > 100 µM | > 100 µM
11 | NC(=O)CC(N)c1nn[nH]n1 (stereo not given) |  | > 100 µM |  | > 100 µM |  | > 100 µM |  | > 100 µM |  | > 100 µM |  | > 100 µM |  | > 100 µM |  | > 100 µM |  | > 100 µM |  | > 100 µM
12 | O=c1[nH]c2ccccc2n1C1CCN(CCCC(c2ccc(F)cc2)c2ccc(F)cc2)CC1 | 1.54 µM and 4.49 µM | 3.06 µM and 11.5 µM | 1.54 µM and 6.93 µM | 2.95 µM and 16.1 µM | 2.1 µM and 5.52 µM | 3.96 µM and 12.3 µM | 1.48 µM and 7.32 µM | 3.14 µM and 21.9 µM | 1.5 µM | 2.97 µM and 23.4 µM | 1.61 µM | 2.99 µM and 5.86 µM |  | 5.22 µM |  | 28.9 µM |  | 25.6 µM | 1.12 µM and 8.77 µM | 2.36 µM and 22.7 µM
13 | Fc1ccc2nc(-c3nc(-c4ccccc4)n4ccccc34)[nH]c2c1 | 2.59 µM | 8.94 µM | 3.25 µM | 6.72 µM | 2.85 µM | 7.83 µM | 2.68 µM | 7.98 µM | 4.5 µM | 17.9 µM | 2.13 µM | 5.51 µM | 4.45 µM | > 100 µM | 3.29 µM | 9.96 µM | 2.09 µM | 6.87 µM | 2.08 µM | 6.46 µM
